Source: ChEMBL document CHEMBL1157437, “Synthesis and biological activities of reveromycin A and spirofungin A derivatives” (Bioorg Med Chem Lett, 2008)

What was measured:
[1] = target: T1, Isoleucine--tRNA ligase, cytoplasmic (Homo sapiens, UniProt P41252); assay: Inhibition of IleRS
T1 sequence (P41252 whole entry): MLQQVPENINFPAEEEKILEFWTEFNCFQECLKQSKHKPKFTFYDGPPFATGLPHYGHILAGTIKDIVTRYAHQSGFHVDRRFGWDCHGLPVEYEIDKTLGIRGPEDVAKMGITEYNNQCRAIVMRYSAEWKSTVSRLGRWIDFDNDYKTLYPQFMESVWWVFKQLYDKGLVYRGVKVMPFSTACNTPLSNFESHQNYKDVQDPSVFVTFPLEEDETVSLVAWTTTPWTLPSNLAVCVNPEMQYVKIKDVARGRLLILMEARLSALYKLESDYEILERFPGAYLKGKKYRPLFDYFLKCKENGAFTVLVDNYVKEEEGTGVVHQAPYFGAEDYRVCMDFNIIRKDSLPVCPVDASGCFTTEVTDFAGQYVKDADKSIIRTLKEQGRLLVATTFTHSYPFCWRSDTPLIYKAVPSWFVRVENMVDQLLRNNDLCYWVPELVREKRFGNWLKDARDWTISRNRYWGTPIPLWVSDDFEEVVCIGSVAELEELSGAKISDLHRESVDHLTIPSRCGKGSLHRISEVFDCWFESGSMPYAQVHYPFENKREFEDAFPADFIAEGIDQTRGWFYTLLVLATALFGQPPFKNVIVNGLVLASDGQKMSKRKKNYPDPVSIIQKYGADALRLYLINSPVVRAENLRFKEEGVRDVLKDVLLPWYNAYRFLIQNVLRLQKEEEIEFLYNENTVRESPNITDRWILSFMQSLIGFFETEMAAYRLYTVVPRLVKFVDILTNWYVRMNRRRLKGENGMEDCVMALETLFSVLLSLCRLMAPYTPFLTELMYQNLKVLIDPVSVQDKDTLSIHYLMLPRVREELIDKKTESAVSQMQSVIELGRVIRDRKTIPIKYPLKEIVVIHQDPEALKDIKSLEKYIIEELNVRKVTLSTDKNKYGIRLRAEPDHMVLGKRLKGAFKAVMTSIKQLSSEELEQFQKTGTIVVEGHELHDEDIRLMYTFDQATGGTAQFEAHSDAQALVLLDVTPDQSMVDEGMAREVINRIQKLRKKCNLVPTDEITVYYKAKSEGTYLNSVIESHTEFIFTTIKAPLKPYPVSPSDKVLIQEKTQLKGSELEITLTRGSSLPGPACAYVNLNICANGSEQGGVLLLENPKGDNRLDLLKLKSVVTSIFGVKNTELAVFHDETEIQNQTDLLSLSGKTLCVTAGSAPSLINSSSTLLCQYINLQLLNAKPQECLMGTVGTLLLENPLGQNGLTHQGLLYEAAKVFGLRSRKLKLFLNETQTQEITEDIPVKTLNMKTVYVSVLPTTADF

NRK [2] = assay: Effect on morphological reversion in src transformed NRK cells at 100 ug/mL; type: functional; conditions: Rattus norvegicus
NRK [3] = assay: Effect on morphological reversion in src transformed NRK cells at 30 ug/mL; type: functional; conditions: Rattus norvegicus
NRK [4] = assay: Effect on morphological reversion in src transformed NRK cells at 10 ug/mL; type: functional; conditions: Rattus norvegicus
NRK [5] = assay: Effect on morphological reversion in src transformed NRK cells at 3 ug/mL; type: functional; conditions: Rattus norvegicus
NRK [6] = assay: Effect on morphological reversion in src transformed NRK cells at 1 ug/mL; type: functional; conditions: Rattus norvegicus
Osteoclast = assay: Induction of apoptosis in mouse osteoclasts; type: functional
NRK [7] = assay: Effect on morphological reversion in src transformed NRK cells at 0.3 ug/mL; type: functional; conditions: Rattus norvegicus

| SMILES | IC50 [1] [nM] | inhibition at 100 µg/mL (NRK [2]) [%] | inhibition at 30 µg/mL (NRK [3]) [%] | inhibition at 10 µg/mL (NRK [4]) [%] | inhibition at 3 µg/mL (NRK [5]) [%] | inhibition at 1 µg/mL (NRK [6]) [%] | Activity (Osteoclast) [µg/mL] | inhibition at 0.3 µg/mL (NRK [7]) [%] |
| --- | --- | --- | --- | --- | --- | --- | --- | --- |
| CCCC[C@@]1(OC)CC[C@]2(CC[C@H](C)[C@@H](C/C=C(C)/C=C/[C@H](O)[C@@H](C)/C=C/C(=O)O)O2)O[C@H]1/C=C/C(C)=C/C(=O)O | 101 | > 80 | > 80 | 20 | – | – | – | – |
| CCCC[C@@]1(OC(=O)CCC(=O)O)CC[C@]2(CC[C@H](C)[C@@H](C/C=C(C)/C=C/[C@H](OC(C)=O)[C@@H](C)/C=C/C(=O)O)O2)O[C@H]1/C=C/C(C)=C/C(=O)O | > 1420 | > 80 | > 80 | 50 | < 10 | < 10 | 0.46 | – |
| CCCC[C@@]1(OC(=O)CCC(=O)O)CC[C@]2(CC[C@H](C)[C@@H](C/C=C(C)/C=C/[C@H](OC)[C@@H](C)/C=C/C(=O)O)O2)O[C@H]1/C=C/C(C)=C/C(=O)O | 554 | < 10 | – | – | < 10 | – | >15 | – |
| CCCC[C@@]1(O)CC[C@]2(CC[C@H](C)[C@@H](C/C=C(C)/C=C/[C@H](O)[C@@H](C)/C=C/C(=O)O)O2)O[C@H]1/C=C/C(C)=C/C(=O)O | 169 | < 10 | – | – | – | – | 11.5 | – |
| CCCC[C@@]1(OCSC)CC[C@]2(CC[C@H](C)[C@@H](C/C=C(C)/C=C/[C@H](O)[C@@H](C)/C=C/C(=O)O)O2)O[C@H]1/C=C/C(C)=C/C(=O)O | 801 | > 80 | 20 | < 10 | – | – | 9.6 | – |
| CCCC[C@@]1(OC(=O)CCC(=O)O)CC[C@]2(CC[C@H](C)[C@@H](C/C=C(C)/C=C/[C@H](O)[C@@H](C)CO)O2)O[C@H]1/C=C/C(C)=C/C(=O)O | 36.9 | > 80 | 20 | < 10 | < 10 | < 10 | 6.31 | < 10 |
| CCCC[C@@]1(OC(=O)CCC(=O)O)CC[C@]2(CC[C@H](C)[C@@H](C/C=C(C)/C=C/[C@H](O[Si](C)(C)C(C)(C)C)[C@@H](C)/C=C/C(=O)O)O2)O[C@H]1/C=C/C(C)=C/C(=O)O | > 1290 | < 10 | – | – | – | – | 5.9 | – |
| CCCC[C@@]1(OC(=O)CCC(=O)OC)CC[C@]2(CC[C@H](C)[C@@H](C/C=C(C)/C=C/[C@H](O)[C@@H](C)/C=C/C(=O)O)O2)O[C@H]1/C=C/C(C)=C/C(=O)O | 434 | > 80 | > 80 | > 80 | > 80 | 10 | 2.5 | – |
| CCCC[C@@]1(OC(=O)CCC(=O)O)CC[C@]2(CC[C@H](C)[C@@H](CCO)O2)O[C@H]1/C=C/C(C)=C/C(=O)O | > 2010 | < 10 | < 10 | < 10 | < 10 | – | – | – |
| CCCC[C@@]1(OC(=O)CCC(=O)O)CC[C@]2(CC[C@H](C)[C@@H](C/C=C(C)/C=C/C(=O)O)O2)O[C@H]1/C=C/C(C)=C/C(=O)O | > 1730 | < 10 | < 10 | < 10 | < 10 | – | – | – |
| CCCC[C@@]1(OC(=O)CCC(=O)O)CC[C@]2(CC[C@H](C)[C@@H](C/C=C(C)/C=C/CO)O2)O[C@H]1/C=C/C(C)=C/C(=O)O | 996 | < 10 | < 10 | < 10 | < 10 | – | – | – |
| CCCC[C@@]1(OC(=O)CCC(=O)O)CC[C@]2(CC[C@H](C)[C@@H](C/C=C(\C)COC(=O)CCC(=O)O)O2)O[C@H]1/C=C/C(C)=C/C(=O)O | > 1570 | < 10 | < 10 | < 10 | < 10 | – | >15 | – |
| CCCC[C@@]1(OC(=O)CCC(=O)O)CC[C@]2(CC[C@H](C)[C@@H](C/C=C(C)/C=C/[C@H](O)[C@@H](C)/C=C/C(=O)OC)O2)O[C@H]1/C=C/C(C)=C/C(=O)O | 313 | > 80 | > 80 | > 80 | 20 | < 10 | 2 | – |
| CCCC[C@@]1(OC(=O)CCC(=O)O)CC[C@]2(CC[C@H](C)[C@@H](C/C=C(C)/C=C/[C@H](O)[C@@H](C)/C=C/C(=O)O)O2)O[C@H]1/C=C/C(C)=C/C(=O)OC | > 1480 | > 80 | > 80 | 10 | < 10 | < 10 | 3.1 | – |
| CCCC[C@@]1(OC(=O)CCC(=O)O)CC[C@]2(CC[C@H](C)[C@@H](C/C=C(\C)CO)O2)O[C@H]1/C=C/C(C)=C/C(=O)O | > 1860 | < 10 | < 10 | < 10 | < 10 | – | – | – |
| CCCC[C@@]1(OC(=O)CCC(=O)O)CC[C@]2(CC[C@H](C)[C@@H](C/C=C(C)/C=C/[C@@H](O)[C@@H](C)CCC(=O)O)O2)O[C@H]1/C=C/C(C)=C/C(=O)O [2,3-DIHYDRO-5-EPIREVEROMYCIN A] | 88 | 50 | < 10 | < 10 | < 10 | – | 0.82 | – |
| CCCC[C@@]1(OC(=O)CCC(=O)O)CC[C@]2(CC[C@H](C)[C@@H](C/C=C(C)/C=C/[C@H](O)[C@@H](C)CCC(=O)O)O2)O[C@H]1/C=C/C(C)=C/C(=O)O [2,3-DIHYDROREVEROMYCIN A] | 17.5 | > 80 | 50 | 20 | 10 | – | 0.22 | – |
| CCCC[C@@]1(OC(=O)CCC(=O)O)CC[C@]2(CC[C@H](C)[C@@H](C/C=C(C)/C=C/[C@H](O)[C@@H](O)/C=C/C(=O)O)O2)O[C@H]1/C=C/C(C)=C/C(=O)O [4-HYDROXY REVEROMYCIN A] | 21.7 | > 80 | 20 | 10 | < 10 | < 10 | 1.01 | < 10 |
| CCCC[C@@]1(OC(=O)CCC(=O)O)CC[C@]2(CC[C@H](C)[C@@H](C/C=C(C)/C=C/[C@@H](O)[C@@H](C)/C=C/C(=O)O)O2)O[C@H]1/C=C/C(C)=C/C(=O)O [5-EPIREVEROMYCIN A] | 572 | < 10 | < 10 | < 10 | < 10 | – | 21.5 | – |
| CCCC[C@]1([C@H](/C=C/C(C)=C/C(=O)O)OC(=O)CCC(=O)O)CC[C@]2(CC[C@H](C)[C@@H](C/C=C(C)/C=C/[C@H](O)[C@@H](C)/C=C/C(=O)O)O2)O1 [REVEROMYCIN B] | > 1510 | < 10 | – | – | < 10 | – | >15 | – |
| CC(/C=C/[C@H](O)[C@@H](C)/C=C/C(=O)O)=C\C[C@H]1O[C@@]2(CC[C@H](C)[C@H](/C=C/C(C)=C/C(=O)O)O2)CC[C@@H]1C [SPIROFUNGIN A] | 1120 | > 80 | 20 | 10 | < 10 | – | >30 | – |
| CC(/C=C/[C@H](O)[C@@H](C)/C=C/C(=O)O)=C\C[C@H]1O[C@]2(CC[C@H](C)[C@H](/C=C/C(C)=C/C(=O)O)O2)CC[C@@H]1C [SPIROFUNGIN B] | > 1990 | < 10 | < 10 | < 10 | < 10 | – | >30 | – |
